Results from patent US12286404B2, “Solid state forms of Mitapivat and process for preparation thereof” (TEVA PHARMACEUTICALS INTERNATIONAL GMBH, priority 2020, dated 2025).
Structures can show the parent of a compound that is named as a salt.

Key:
Type in all cases: physicochemical
[1] = Storage stability under humidity/temperature conditions; details: for stability up to 80% RH: up to 80% RH at RT, for at least one week; for stability under regular conditions: 60% RH at RT; for stability under regular conditions / stability under accelerated conditions: for at least one month; for stability under accelerated conditions: 75% RH at 40° C.
[2] = Stability under stress conditions (heating, grinding, high pressure); details: for stability under stress conditions: heating, grinding and high pressure
Hygroscopicity = assay: Hygroscopicity

stability up to 80% RH [1] | stability under grinding ([2]; grinding) | hygroscopicity (Hygroscopicity) | stability under regular conditions [1] | stability under accelerated conditions [1] | stability under stress conditions [2] | Compound
stable | stable | non-hygroscopic | – | – | – | Mitapivat phosphate [Form P1 of Mitapivat phosphate]
stable | – | – | – | – | – | O=C(c1ccc(NS(=O)(=O)c2cccc3cccnc23)cc1)N1CCN(CC2CC2)CC1 [Form III of Mitapivat HCl, Mitapivat HCl]
– | – | non-hygroscopic | polymorphically and chemically stable | polymorphically and chemically stable | stable | Mitapivat hemisulfate:ascorbic acid
– | – | non-hygroscopic | stable | stable | stable | O=C(c1ccc(NS(=O)(=O)c2cccc3cccnc23)cc1)N1CCN(CC2CC2)CC1 [Form I of Mitapivat HCl, Mitapivat HCl]
